Where “and” joins values, the source holds several entries; their conditions need not be identical. Equal entries are not always repeated.
System: 997726-040-R-J2-PDC tumor spheroids, viability
Assay: Anticancer human tumor 997726-040-R-J2-PDC patient-derived squamous cell lung carcinoma cell line growth inhibition [PI3K]
Details: spheroids with HUVEC and MSC; for viability, T/C: stronger effect = lower value
Description: Combinatorial screen of targeted agents with the PI3K inhibitors inavolisib, alpelisib, duvelisib, and copanlisib in multi-cell type tumor spheroids
A high-throughput screen of multi-cell type tumor spheroids was designed to identify active combinations of targeted small molecules and PI3K pathway inhibitors. Complex spheroids include a stromal component modeled by human endothelial cells (HUVEC) and fibroblasts modeled by human mesenchymal stem cells (MSCs). The concentration ranges selected for each drug and investigational agent were based upon clinically achievable concentrations if the clinical Cmax of the agent was known.
Compounds. The drugs and investigational agents: inavolisib (NSC800729), alpelisib (NSC765974), duvelisib (NSC772469), copanlisib (NSC816437), ipatasertib (NSC767898), afuresertib (NSC778305), talazoparib (NSC767125), sapanisertib (NSC764658), selumetinib (NSC741078), tovorafenib (DAY101, NSC766906), vemurafenib (NSC761431), ravoxertinib (NSC781343), sotorasib (NSC818433), MRTX1133 (NSC 836407), abemaciclib (NSC 768073), palbociclib (NSC758247), venetoclax (NSC 766270), SY5609 (NSC837396), enzalutamide (NSC755605), and darolutamide (NSC825331), were obtained from the National Cancer Institute (NCI) Developmental Therapeutics Program Chemical Repository. The FDA-approved anticancer drug set is available from the NCI Developmental Therapeutics Program. […] The stock solutions were prepared in dimethyl sulfoxide (DMSO, Sigma-Aldrich, St. Louis, MO, cat. D2650) at 800-fold the tested concentration and stored at -70 degrees C prior to their use. All drugs and investigational agents were tested over a range starting from a high concentration at or near the clinical Cmax and decreasing in half-log increments. If the clinical Cmax for an agent had not been determined, the highest concentration tested was 10 microM.
Cell Culture. All cells were maintained in an incubator at 37 degrees C and 5% CO2 with 95% humidity. The PDC lines were cultured according to standard operating procedures established by the NCI PDMR (https://pdmr.cancer.gov/sops/default.htm). All PDCs were thawed and cultured in Matrigel-coated flasks prepared with a working solution of 1X Ham's F-12 nutrient mix, without supplementation (Invitrogen, Waltham, MA, cat. 11765054), 100 U/mL penicillin-streptomycin (Invitrogen, cat. 15140122), and 2.5% Matrigel (Corning Inc., Corning, NY, cat. 354248) for the first three passages. The 354836-022-R-J1-PDC, 475296-252-R-J1-PDC, and 997726-040-R-J2-PDC lines were cultured in 6A media, which includes advanced DMEM/F-12 (Thermo Fisher Scientific, cat. 12634028), 10 mM HEPES (Thermo Fisher Scientific, cat. 15630080), 1X GlutaMAX supplement (Thermo Fisher Scientific, cat. 35050061), 0.1 mg/mL primocin (InvivoGen, San Diego, CA, cat. ant-pm-2), 10% defined fetal bovine serum, heat inactivated (HyClone Laboratories Inc., Logan, UT, cat. SH30070.03HI), 50% L-WRN conditioned media (ATCC, cat. CRL-3276), 1.25 mM N-Acetyl-L-cysteine (Sigma-Aldrich, cat. A9165), 10 mM nicotinamide (Sigma-Aldrich, cat. N0636), 1X B-27 supplement (Thermo Fisher Scientific, cat. 17504044), 1X N-2 supplement (Thermo Fisher Scientific, cat. 17502048), and 10 microM Y-27632 dihydrochloride (Tocris Bioscience, Bristol, United Kingdom, cat. 1254). The 624824-186-R-J2-PDC line was cultured in 6C/Colon 1B media, which includes all 6A media components plus 50 ng/mL human EGF recombinant protein (Thermo Fisher Scientific, cat. PHG0311). […]

[1] = compound alone, run of 06/12/2023
[2] = compound alone, run of 06/13/2023
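Further: spheroids exposed to compounds for seven days before readout.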

Row | IC50 (curve of compound) | Compound | viability, T/C (compound 0.0316 µM) | viability, T/C (compound 0.1 µM) | viability, T/C (compound 0.316 µM) | viability, T/C (compound 1 µM) | viability, T/C (compound 3.16 µM) | viability, T/C (compound 10 µM) | viability, T/C (compound 0.00316 µM) | viability, T/C (compound 0.01 µM) | other results
1 | > 10 µM | C=CC(=O)N1CCN(c2nc(=O)n(-c3c(C)ccnc3C(C)C)c3nc(-c4c(O)cccc4F)c(F)cc23)C(C)C1 (stereo not drawn) | 105% [middle of 4 runs] | 91.2% and 100% (2×) and 96.7% | 109% [middle of 4 runs] | 109% [middle of 4 runs] | 126% [middle of 4 runs] | 122% [middle of 4 runs] |  |  | 
2 | > 0.1 µM | CC(=O)c1c(C)c2cnc(Nc3ccc(N4CCNCC4)cn3)nc2n(C2CCCC2)c1=O | 82.2% [middle of 4 runs] | 62.8% [middle of 4 runs] |  |  |  |  | 99.1% [middle of 4 runs] | 91.3% [middle of 4 runs] | viability, T/C (compound 0.000316 µM): 94.7% [middle of 4 runs]; viability, T/C (compound 0.001 µM): 92.8% [middle of 4 runs]
3 | 336 nM [middle of 4 runs] | CC(C)NCC(C(=O)N1CCN(c2ncnc3c2C(C)CC3O)CC1)c1ccc(Cl)cc1 (stereo not drawn) | 88.5% [middle of 4 runs] | 77% [middle of 4 runs] | 51.8% [middle of 4 runs] | 25.5% [middle of 4 runs] | 13.7% [middle of 4 runs] | 9.08% [middle of 4 runs] |  |  | 
4 | 7.12 µM and 7.36 µM and 7.32 µM | CCCS(=O)(=O)Nc1ccc(F)c(C(=O)c2c[nH]c3ncc(-c4ccc(Cl)cc4)cc23)c1F | 103% [middle of 4 runs] | 106% [middle of 4 runs] | 104% (2×) and 114% and 126% | 131% [middle of 4 runs] |  | 27.6% [middle of 4 runs] |  |  | 
5 | > 1 µM | CCN1CCN(Cc2ccc(Nc3ncc(F)c(-c4cc(F)c5nc(C)n(C(C)C)c5c4)n3)nc2)CC1 | 74.3% [middle of 4 runs] | 64.8% [middle of 4 runs] | 68.5% [middle of 4 runs] |  |  |  | 94% [middle of 4 runs] | 88.4% [middle of 4 runs] | 
6 | > 10 µM | CNC(=O)c1ccc(N2C(=S)N(c3ccc(C#N)c(C(F)(F)F)c3)C(=O)C2(C)C)cc1F | 109% [middle of 4 runs] | 95.3% [middle of 4 runs] | 97% [middle of 4 runs] | 93.3% [middle of 4 runs] | 108% [middle of 4 runs] | 95.8% [middle of 4 runs] |  |  | 

More lines, now with the values behind:

Row | Compound | IC50 (curve of compound) | viability, T/C (compound 0.0316 µM) | viability, T/C (compound 0.1 µM) | viability, T/C (compound 0.316 µM) | viability, T/C (compound 1 µM) | viability, T/C (compound 3.16 µM) | viability, T/C (compound 10 µM) | viability, T/C (compound 0.00316 µM) | viability, T/C (compound 0.01 µM) | other results
7 | CC(C)n1nc(-c2ccc3oc(N)nc3c2)c2c(N)ncnc21 | 28.8 nM [middle of 4 runs] | 50.7% [middle of 4 runs] | 14.7% [middle of 4 runs] |  |  |  |  | 87.5% [middle of 4 runs] | 68% [middle of 4 runs] | viability, T/C (compound 0.000316 µM): 91.5% [middle of 4 runs]; viability, T/C (compound 0.001 µM): 85% [middle of 4 runs]
8 | CC(Cn1ccc(-c2ccc(C#N)c(Cl)c2)n1)NC(=O)c1cc(C(C)O)[nH]n1 (stereo not drawn) | > 10 µM | 101% [middle of 4 runs] | 103% [middle of 4 runs] | 105% [middle of 4 runs] | 100% [middle of 4 runs] | 107% [middle of 4 runs] | 96.3% [middle of 4 runs] |  |  | 
9 | CC(Nc1ccc2c(c1)OCCn1cc(N3C(=O)OCC3C(F)F)nc1-2)C(N)=O (stereo not drawn) |  | 61% [middle of 8 runs] | 44.3% [middle of 8 runs] | 32.9% [middle of 8 runs] | 28.2% [middle of 8 runs] |  |  | 91.6% [middle of 8 runs] | 81.8% [middle of 8 runs] | IC50 [1]: 71.5 nM [middle of 8 runs]
10 | CC(Nc1ncnc2nc[nH]c12)c1cc2cccc(Cl)c2c(=O)n1-c1ccccc1 (stereo not drawn) |  | 106% [middle of 8 runs] | 99.4% [middle of 8 runs] | 94.3% [middle of 8 runs] | 86.6% [middle of 8 runs] | 70.8% [middle of 8 runs] | 54.7% [middle of 8 runs] |  |  | IC50 [2]: > 10 µM and 9.01 µM
11 | CC1(C)CCC(CN2CCN(c3ccc(C(=O)NS(=O)(=O)c4ccc(NCC5CCOCC5)c([N+](=O)[O-])c4)c(Oc4cnc5[nH]ccc5c4)c3)CC2)=C(c2ccc(Cl)cc2)C1 | 8.5 µM [middle of 4 runs] | 98.4% [middle of 4 runs] | 95.7% [middle of 4 runs] |  | 102% [middle of 4 runs] | 98.8% [middle of 4 runs] | 42.4% [middle of 4 runs] |  |  | 
12 | CC1(C)CCC(Nc2ncc(C(F)(F)F)c(-c3c[nH]c4c(P(C)(C)=O)c(C#N)ccc34)n2)CN1 (stereo not drawn) |  | 45.6% [middle of 4 runs] | 42.6% [middle of 4 runs] | 48% [middle of 4 runs] | 44% [middle of 4 runs] |  | 23.3% [middle of 4 runs] |  |  | 
13 | COc1c(OCCCN2CCOCC2)ccc2c3n(c(=NC(=O)c4cnc(N)nc4)nc12)CCN3 |  | 36.3% [middle of 8 runs] | 22.1% [middle of 8 runs] | 4.98% [middle of 8 runs] | 1.19% [middle of 8 runs] |  |  | 82.3% [middle of 8 runs] | 58.9% [middle of 8 runs] | IC50 [2]: 15.9 nM [middle of 8 runs]
14 | Cc1nc(NC(=O)N2CCCC2C(N)=O)sc1-c1ccnc(C(C)(C)C(F)(F)F)c1 (stereo not drawn) |  | 91.9% [middle of 8 runs] | 77% [middle of 8 runs] | 57.5% [middle of 8 runs] | 42.9% [middle of 8 runs] | 30.8% [middle of 8 runs] | 16.2% [middle of 8 runs] |  |  | IC50 [1]: 599 nM [middle of 8 runs]
15 | Cn1cnc2c(F)c(Nc3ccc(Br)cc3Cl)c(C(=O)NOCCO)cc21 |  |  |  |  |  |  |  |  |  | viability, T/C (compound 0.00949 µM): 77.2% [middle of 4 runs]; viability, T/C (compound 0.03 µM): 70.8% [middle of 4 runs]; viability, T/C (compound 0.0949 µM): 58.2% [middle of 4 runs]; viability, T/C (compound 0.3 µM): 48.6% [middle of 4 runs]; viability, T/C (compound 0.949 µM): 48.3% [middle of 4 runs]; viability, T/C (compound 3 µM): 40.8% [middle of 4 runs]
16 | Cn1nccc1Nc1nccc(-c2ccn(C(CO)c3ccc(Cl)c(F)c3)c(=O)c2)n1 (stereo not drawn) | > 10 µM | 93.2% [middle of 4 runs] | 78.7% [middle of 4 runs] | 73.9% [middle of 4 runs] | 61.8% [middle of 4 runs] | 61.6% [middle of 4 runs] | 58.1% [middle of 4 runs] |  |  | 
17 | Cn1ncnc1[C@H]1c2n[nH]c(=O)c3cc(F)cc(c23)N[C@@H]1c1ccc(F)cc1 | > 0.1 µM | 116% [middle of 4 runs] | 102% [middle of 4 runs] |  |  |  |  | 96.6% [middle of 4 runs] | 98.5% [middle of 4 runs] | viability, T/C (compound 0.000316 µM): 98.9% [middle of 4 runs]; viability, T/C (compound 0.001 µM): 99.5% [middle of 4 runs]

Source: PubChem BioAssay AID1963964 (Molecular Pharmacology Branch, DTP, NCI, 2024)
